Assay results as given in PubChem BioAssay AID1845194 (Molecular Pharmacology Branch, DTP, NCI, 2023).

Tested on: 287954-098-R-J1 tumor spheroid viability
Assay: Anticancer human tumor 287954-098-R-J1 patient-derived Ewing sarcoma cell line growth inhibition
Settings: spheroids with HUVEC and MSC; for viability, T/C: stronger effect = lower value
Procedure, shortened: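 Complex tumor spheroids combined malignant cells with endothelial cells and mesenchymal stem cells. DNA-damaging drugs and DNA repair inhibitors were tested alone and in combination, at half-log dilutions down from clinical Cmax (top 10 microM if Cmax unknown), 0.25% DMSO final.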

[1] = curve of first compound, second compound 0.003 µM
[2] = curve of first compound, second compound 0.00949 µM
[3] = curve of first compound, second compound 0.03 µM
[4] = curve of first compound, second compound 0.0949 µM
[5] = curve of first compound, second compound 0.3 µM
[6] = second compound 0.003 µM, first compound 0.00949 µM
[7] = second compound 0.003 µM, first compound 0.03 µM
[8] = second compound 0.003 µM, first compound 0.0949 µM
[9] = second compound 0.003 µM, first compound 0.3 µM
[10] = second compound 0.003 µM, first compound 0.949 µM
[11] = second compound 0.003 µM, first compound 3 µM
[12] = second compound 0.00949 µM, first compound 0.00949 µM
[13] = second compound 0.00949 µM, first compound 0.03 µM
[14] = second compound 0.00949 µM, first compound 0.0949 µM
[15] = second compound 0.00949 µM, first compound 0.3 µM
[16] = second compound 0.00949 µM, first compound 0.949 µM
[17] = second compound 0.00949 µM, first compound 3 µM
[18] = second compound 0.03 µM, first compound 0.00949 µM
[19] = second compound 0.03 µM, first compound 0.03 µM
[20] = second compound 0.03 µM, first compound 0.0949 µM
[21] = second compound 0.03 µM, first compound 0.3 µM
[22] = second compound 0.03 µM, first compound 0.949 µM
[23] = second compound 0.03 µM, first compound 3 µM
[24] = second compound 0.0949 µM, first compound 0.00949 µM
[25] = second compound 0.0949 µM, first compound 0.03 µM
[26] = second compound 0.0949 µM, first compound 0.0949 µM
[27] = second compound 0.0949 µM, first compound 0.3 µM
[28] = second compound 0.0949 µM, first compound 0.949 µM
[29] = second compound 0.0949 µM, first compound 3 µM
[30] = second compound 0.3 µM, first compound 0.00949 µM
[31] = second compound 0.3 µM, first compound 0.03 µM
[32] = second compound 0.3 µM, first compound 0.0949 µM
[33] = second compound 0.3 µM, first compound 0.3 µM
[34] = second compound 0.3 µM, first compound 0.949 µM
[35] = second compound 0.3 µM, first compound 3 µM
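Further: spheroids exposed to compound for 7 days before viability readout.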
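Wherever viability, T/C is given: luminescent signal taken as surrogate of viable cell content; 100% = DMSO vehicle control viability and lower means growth inhibition.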

`Cc1sc2c(c1C)C(c1ccc(Cl)cc1)=NC(CC(=O)Nc1ccc(O)cc1)c1nnc(C)n1-2` (stereo unspecified) + CC[C@@]1(O)C(=O)OCc2c1cc1n(c2=O)Cc2cc3c(CN(C)C)c(O)ccc3nc2-1 showed an IC50 [1] of 0.555 µM, an IC50 [2] of 0.185 µM and an IC50 [3] of less than 0.00949 µM. For the same molecule, the IC50 [4] was less than 0.00949 µM, the IC50 [5] was less than 0.00949 µM and the viability, T/C [6] was 110%. For the same molecule, the viability, T/C [7] was 117%, the viability, T/C [8] was 123% and the viability, T/C [9] was 90.1%. It also gave a viability, T/C [10] of 15.2%, a viability, T/C [11] of 1.91% and a viability, T/C [12] of 117%. For the same molecule, the viability, T/C [13] was 112%, the viability, T/C [14] was 106% and the viability, T/C [15] was 9.5%. The viability, T/C [16] was 1.8%, the viability, T/C [17] was 1.47% and the viability, T/C [18] was 2.84%. It also gave a viability, T/C [19] of 3%, a viability, T/C [20] of 1.99% and a viability, T/C [21] of 1.63%. It also gave a viability, T/C [22] of 1.17%, a viability, T/C [23] of 1.04% and a viability, T/C [24] of 1.98%. The viability, T/C [25] was 2.06%, the viability, T/C [26] was 1.8% and the viability, T/C [27] was 1.32%. The viability, T/C [28] was 1.09%, the viability, T/C [29] was 1.22% and the viability, T/C [30] was 1.94%. It also gave a viability, T/C [31] of 2.02%, a viability, T/C [32] of 1.68% and a viability, T/C [33] of 1.25%. For the same molecule, the viability, T/C [34] was 1.2% and the viability, T/C [35] was 1%.
Molecule `Cn1ncnc1[C@H]1c2n[nH]c(=O)c3cc(F)cc(c23)N[C@@H]1c1ccc(F)cc1` + CC[C@@]1(O)C(=O)OCc2c1cc1n(c2=O)Cc2cc3c(CN(C)C)c(O)ccc3nc2-1 has an IC50 [1] of 0.453 µM, an IC50 [2] of 0.0748 µM and an IC50 [3] of less than 0.00949 µM. The IC50 [4] was less than 0.00949 µM, the IC50 [5] was less than 0.00949 µM and the viability, T/C [6] was 99.9%. It also gave a viability, T/C [7] of 97.6%, a viability, T/C [8] of 105% and a viability, T/C [9] of 76.4%. The viability, T/C [10] was 2.29%, the viability, T/C [11] was 2.4% and the viability, T/C [12] was 90.6%. It also gave a viability, T/C [13] of 74.2%, a viability, T/C [14] of 45.6% and a viability, T/C [15] of 2.19%. For the same molecule, the viability, T/C [16] was 2.05%, the viability, T/C [17] was 2.02% and the viability, T/C [18] was 2.23%. For the same molecule, the viability, T/C [19] was 1.81%, the viability, T/C [20] was 2.46% and the viability, T/C [21] was 2.34%. For the same molecule, the viability, T/C [22] was 1.82%, the viability, T/C [23] was 2.07% and the viability, T/C [24] was 1.93%. The viability, T/C [25] was 1.99%, the viability, T/C [26] was 2.15% and the viability, T/C [27] was 1.75%. It also gave a viability, T/C [28] of 2.09%, a viability, T/C [29] of 1.72% and a viability, T/C [30] of 1.85%. The viability, T/C [31] was 1.99%, the viability, T/C [32] was 1.97% and the viability, T/C [33] was 1.59%. It also gave a viability, T/C [34] of 1.85% and a viability, T/C [35] of 1.48%.
`Cn1nnc2c(C(N)=O)ncn2c1=O` was tested, and the viability, T/C (compound 1 µM) was 101% [middle of 10 runs], the viability, T/C (compound 3.16 µM) was 101% [middle of 10 runs] and the viability, T/C (compound 10 µM) was 105% [middle of 10 runs]. The viability, T/C (compound 31.6 µM) was 111% [middle of 10 runs], the viability, T/C (compound 100 µM) was 100% [middle of 10 runs] and the IC50 (compound alone, run of 10/17/2019) was greater than 100 µM.
For `COc1ccc([C@@H](O)c2cc(-c3ncnc4cc(N5CCOCC5)ccc34)c(F)cc2Cl)nn1` + CC[C@@]1(O)C(=O)OCc2c1cc1n(c2=O)Cc2cc3c(CN(C)C)c(O)ccc3nc2-1, the IC50 [1] was greater than 10 µM, the IC50 [2] was greater than 10 µM and the IC50 [3] was less than 0.0316 µM. It also gave an IC50 [4] of less than 0.0316 µM, an IC50 [5] of less than 0.0316 µM and a viability, T/C (second compound 0.003 µM, first compound 0.0316 µM) of 91.5%. The viability, T/C (second compound 0.003 µM, first compound 0.1 µM) was 97.4%, the viability, T/C (second compound 0.003 µM, first compound 0.316 µM) was 95.8% and the viability, T/C (second compound 0.003 µM, first compound 1 µM) was 105%. The viability, T/C (second compound 0.003 µM, first compound 3.16 µM) was 96.5%, the viability, T/C (second compound 0.003 µM, first compound 10 µM) was 83.9% and the viability, T/C (second compound 0.00949 µM, first compound 0.0316 µM) was 94.3%. The viability, T/C (second compound 0.00949 µM, first compound 0.1 µM) was 94.1%, the viability, T/C (second compound 0.00949 µM, first compound 0.316 µM) was 100% and the viability, T/C (second compound 0.00949 µM, first compound 1 µM) was 92.1%. For the same molecule, the viability, T/C (second compound 0.00949 µM, first compound 3.16 µM) was 93.2%, the viability, T/C (second compound 0.00949 µM, first compound 10 µM) was 54.9% and the viability, T/C (second compound 0.03 µM, first compound 0.0316 µM) was 21.7%. It also gave a viability, T/C (second compound 0.03 µM, first compound 0.1 µM) of 24.2%, a viability, T/C (second compound 0.03 µM, first compound 0.316 µM) of 11.3% and a viability, T/C (second compound 0.03 µM, first compound 1 µM) of 5.39%. It also gave a viability, T/C (second compound 0.03 µM, first compound 3.16 µM) of 0.97%, a viability, T/C (second compound 0.03 µM, first compound 10 µM) of 5.74% and a viability, T/C (second compound 0.0949 µM, first compound 0.0316 µM) of 1.23%. For the same molecule, the viability, T/C (second compound 0.0949 µM, first compound 0.1 µM) was 1.03%, the viability, T/C (second compound 0.0949 µM, first compound 0.316 µM) was 1.21% and the viability, T/C (second compound 0.0949 µM, first compound 1 µM) was 0.99%. The viability, T/C (second compound 0.0949 µM, first compound 3.16 µM) was 0.52%, the viability, T/C (second compound 0.0949 µM, first compound 10 µM) was 0.59% and the viability, T/C (second compound 0.3 µM, first compound 0.0316 µM) was 1.41%. The viability, T/C (second compound 0.3 µM, first compound 0.1 µM) was 1.01%, the viability, T/C (second compound 0.3 µM, first compound 0.316 µM) was 1.15% and the viability, T/C (second compound 0.3 µM, first compound 1 µM) was 0.88%. The viability, T/C (second compound 0.3 µM, first compound 3.16 µM) was 0.44% and the viability, T/C (second compound 0.3 µM, first compound 10 µM) was 0.41%.
